Experimental data reported in patent US20110251189A1, “HYPOXIA TARGETED COMPOUNDS FOR CANCER DIAGNOSIS AND THERAPY” (priority 2008, published 2011).
Like-named read-outs stand apart in the source and are kept apart here.

What was measured:
HepG2 cells [1] = assay: HepG2 clonogenic assay (colony count) under normoxic or hypoxic conditions; type: cell-based; conditions: for cells dead / colonies dead: hypoxic conditions; for cells dead / cells dead compared with controls: 50 μM; for cells dead: p<0.00001 vs control treated hypoxic conditions; for colonies dead / colonies alive relative to controls: ~10 μM; for colonies dead: p<0.001 vs control treated cells; for cells dead compared with controls / colonies alive relative to controls: normoxic cells; for colonies alive relative to controls: FIG. 5
Experimental: In the HepG2 clonogenic assays, 3.5×10^3 per well were seeded in 6-well plates using RPMI1640 and 10% FBS. After 24 hrs of growth at 37° C., the cells were exposed to vehicle or drug(s). After 10 days incubation with drug(s) or control, the wells were washed with PBS twice, then fixed in 10% acetic acid for 10 min, then stained with crystal violet for 10 min, and finally rinsed with distilled water at room temperature. The colonies (>50 μm likely representing >50 cells) were then visually counted in randomly chosen 1-mm×1-mm grid repeated three times. Statistical analyses of the mean number of colonies were performed by using the Mann-Whitney t test, with significant differences established as P<0.05 as previously published by the laboratory.^16 For the hypoxia conditions, after 24 hr growth in normoxic conditions as above, the vehicle or drug(s) treated cells were exposed to hypoxic environment (1% O2, 5% CO2, 94% N2 at 37° C.) for 5 hrs, followed by re-oxygenation (5% CO2; 37° C.) for the remaining 10 days.

HepG2 cells [2] = assay: Survival (MTT) cytotoxicity assay in HepG2 cells under normoxic or hypoxic conditions; type: cell-based; conditions: for IC50: Homo sapiens, MTT assay; for toxicity in hypoxic versus normoxic exposure: transient exposure to hypoxic conditions
Experimental: Cell Culture and Cytotoxicity Assays. HepG2 cells (passage 2 from frozen stock) were cultured in RPMI 1640 containing 10% FBS. The tests were performed in 96-well plates with stock cells split equally into duplicate plates—one for normoxic and the other for hypoxic conditions. The drug(s) or vehicle (0.1% DMSO) was applied to the cells in log-exponential growth phase under normoxic conditions (5% CO2; 37 C) for 48 hours or under normoxic conditions (22 hr) followed by 2 hr hypoxic conditions (1% O2, 5% CO2, 94% N2 at 37° C.) then followed by reoxygenation for 24 hrs. For the hypoxia experiments, a glove chamber with two-way pressure value and one-way N2 inflow was used. Hypoxia conditions were met using methylene blue dye indicator (i.e. 0.015% methylene blue, 6% dextrose, 6 mM NaOH) which correlated with the O2 pressure in the glove box when measured continuously with a Clark-type electrode.^13
At 48 hrs, a tetrazolium component (MTT) assay (Promega, Madison, Wis.; Cell Titer 96 Non-Radioactive Cell Proliferation Assay) was performed following an established protocol in the laboratory. Since these assays depend on mitochondrial function, which may be affected by the state of oxygenation, clonogenic assays to verify survival function were also performed. It is important to note that the data presented for the MTT assay normalizes the OD595 for the drug treated wells (minus background) to its own vehicle treated well(s) under either normoxic or hypoxic conditions. These values are then plotted as a percentage (×100%) surviving 48 hrs of drug(s) or vehicle treatment under the said condition. These analyses have also been performed previously for other hypoxia studies.^14,15

[3] = 22 hr normoxia, 2 hr hypoxia (1% O2), reoxygenation 24 hrs, read-out: IC50 (hypoxia)
[4] = normoxic conditions 48 hours, read-out: IC50 (normoxia)

Row | Structure (SMILES) | cells dead (HepG2 cells [1]) [%] | colonies dead (HepG2 cells [1]) [%] | cells dead compared with controls (HepG2 cells [1]) [%] | colonies alive relative to controls (HepG2 cells [1]) [%] | IC50 (HepG2 cells [2]; [3]) [µM] | IC50 (HepG2 cells [2]; [4]) [µM] | toxicity in hypoxic versus normoxic exposure (HepG2 cells [2])
1 | c1ccc(C2=Nc3ccccc3OC2)cc1 [Compound 3] | ~98 | ~71 | ~12 | ~105 | 10.8 ± 1.4 | 87 ± 1.3 | significantly more toxic to hypoxic exposure than to normoxic exposure
2 | Clc1ccc2c(c1)N=C(c1ccccc1)CO2 [Compound 4] | – | – | – | – | 30 ± 2.4 | 78 ± 1.2 | –
3 | O=[N+]([O-])c1ccc2c(c1)N=C(c1ccc(Cl)cc1)CO2 [Compound 7] | ~83 | ~28 | ~11 | ~110 | 20 ± 1.2 | 78 ± 1.4 | significantly more toxic to hypoxic exposure than to normoxic exposure
4 | Clc1ccc(C2=Nc3ccc(Cl)cc3OC2)cc1 [Compound B47.2] | – | – | – | – | 28 ± 1.6 | 88 ± 2.4 | –
5 | Cc1ccc2c(c1)N=C(c1ccc(Cl)cc1)CO2 [Compound B47.4] | – | – | – | – | 87 ± 1.8 | > 600 | –
